# Laboratory results reported in patent US10703733B2, “MCL-1 inhibitors” (Gilead Sciences, Inc., priority 2018, dated 2020).
# Read-outs that look alike come from different tables or passages of the source.
# Columns and labels:
# [1] = molecular target: MCL-1/Bim interaction (recombinant human MCL-1 protein, residues 171-327; biotinylated human Bim peptide, residues 51-76) (Homo sapiens (Human), UniProt Q07820); test: MCL-1/Bim Binding AlphaLISA Assay; details: 0.0625 nM 6xHis-Mcl-1 (171-327), 0.0625 nM biotinylated-Bim peptide
# Sequence of MCL-1/Bim interaction (recombinant human MCL-1 protein, residues 171-327; biotinylated human Bim peptide, residues 51-76) (Q07820 171-327): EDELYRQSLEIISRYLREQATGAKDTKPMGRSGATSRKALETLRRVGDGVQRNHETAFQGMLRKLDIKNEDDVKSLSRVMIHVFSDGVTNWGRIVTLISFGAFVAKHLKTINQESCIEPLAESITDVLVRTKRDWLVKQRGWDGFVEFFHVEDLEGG
# Outline: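 AlphaLISA with 0.0625 nM His-tagged MCL-1 and 0.0625 nM biotin-Bim peptide in 20 mM Hepes pH 7.5, 150 mM NaCl, 0.002% Brij 35, 1 mM DTT, 0.01% BSA. Compound preincubated 1 h with MCL-1, Bim added for 2 h, then acceptor and donor beads 1 h each.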
# SKBR3 cells = test: SKBR3 Cell Viability Assay (CellTiter Glo); assay type: cell-based; details: CellTiter Glo luminescence, read-out: MCL-1 CV SKBR3 EC50
# Outline: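 SKBR3 cells (6,000/well) in McCoy 5A + 10% FBS exposed to serially diluted compound for 72 h at 37° C., 5% CO2. Viability by CellTiter Glo luminescence; % inhibition normalized to DMSO (negative) and 10 μM puromycin (positive).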
Compound,IC50 [1] [nM],"EC50 (SKBR3 cells; Homo sapiens, SK-BR-3, 72 h) [nM]",EC50 (SKBR3 cells; 72 hours) [nM]
COc1nn(C)cc1C(=O)N[S@@]1(=O)=NC(=O)c2ccc3c(c2)N(C[C@@H]2CC[C@H]2[C@@H](O)/C=C/C[C@H](C)C1)C[C@@]1(CCCc2cc(Cl)ccc21)CO3 [Example 223],0.039,37.3,
CC#CC(=O)N[S@@]1(=O)=NC(=O)c2ccc3c(c2)N(C[C@@H]2CC[C@H]2[C@@H](OC)/C=C/CCC1)C[C@@]1(CCCc2cc(Cl)ccc21)CO3 [Example 33],2.9,7440,
CO[C@H]1/C=C/C[C@H](C)C[S@@](=O)(NC(=O)N2CC3(CCCO3)C2)=NC(=O)c2ccc3c(c2)N(C[C@@H]2CC[C@H]21)C[C@@]1(CCCc2cc(Cl)ccc21)CO3 [Example 231],0.051,40,
COC1CCn2cc(C(=O)N[S@@]3(=O)=NC(=O)c4ccc5c(c4)N(C[C@@H]4CC[C@H]4[C@@H](OC)/C=C/C[C@H](C)C3)C[C@@]3(CCCc4cc(Cl)ccc43)CO5)cc2C1 (some centres unmarked) [Example 175],0.14,33.9,
CO[C@H]1/C=C/CCC[S@@](=O)(NC(=O)COc2ccccc2)=NC(=O)c2ccc3c(c2)N(C[C@@H]2CC[C@H]21)C[C@@]1(CCCc2cc(Cl)ccc21)CO3 [Example 96],0.4,604,
CO[C@H]1/C=C/CCC[S@@](=O)(NC(=O)CCc2ccccc2C(F)(F)F)=NC(=O)c2ccc3c(c2)N(C[C@@H]2CC[C@H]21)C[C@@]1(CCCc2cc(Cl)ccc21)CO3 [Example 87],3.2,10000,
"CCC(=O)N[S@@]1(=O)=NC(=O)c2ccc3c(c2)N(C[C@@H]2CC[C@H]2[C@@H](OCCN2CCOCC2)/C=C/CCC1)C[C@@]1(CCCc2cc(Cl)ccc21)CO3 (single isomer, unassigned) [Example 67]",1.2,1040,
CO[C@H]1/C=C/CCC[S@@](=O)(NC(=O)CCc2ccccc2)=NC(=O)c2ccc3c(c2)N(C[C@@H]2CC[C@H]21)C[C@@]1(CCCc2cc(Cl)ccc21)CO3 [Example 97],0.6,788,
CO[C@H]1/C=C/CCC[S@@](=O)(NC(=O)CCc2ccnn2CC(F)(F)F)=NC(=O)c2ccc3c(c2)N(C[C@@H]2CC[C@H]21)C[C@@]1(CCCc2cc(Cl)ccc21)CO3 [Example 92],0.1,245,
COc1nn(C)cc1C(=O)N[S@@]1(=O)=NC(=O)c2ccc3c(c2)N(C[C@@H]2CC[C@H]2[C@@H](O)CCC[C@H](C)C1)C[C@@]1(CCCc2cc(Cl)ccc21)CO3 [Example 280],0.044,50,
CO[C@H]1/C=C/C[C@H](C)C[S@@](=O)(NC(=O)c2cc(Cl)n(C)c2)=NC(=O)c2ccc3c(c2)N(C[C@@H]2CC[C@H]21)C[C@@]1(CCCc2cc(Cl)ccc21)CO3 [Example 118],0.103,184,
CCn1cc(C(=O)N[S@@]2(=O)=NC(=O)c3ccc4c(c3)N(C[C@@H]3CC[C@H]3[C@@H](OC)/C=C/CCC2)C[C@@]2(CCCc3cc(Cl)ccc32)CO4)cn1 [Example 405],0.113,196,
CO[C@H]1/C=C\C[C@H](C)[C@@H](C)[S@@](=O)(NC(=O)COC2CCOCC2)=NC(=O)c2ccc3c(c2)N(C[C@@H]2CC[C@H]21)C[C@@]1(CCCc2cc(Cl)ccc21)CO3 [Example 406],0.103,332,
CO[C@H]1/C=C/CCC[S@@](=O)(NC(=O)CCCn2cccn2)=NC(=O)c2ccc3c(c2)N(C[C@@H]2CC[C@H]21)C[C@@]1(CCCc2cc(Cl)ccc21)CO3 [Example 85],0.6,3090,
COc1nn(C)cc1C(=O)N[S@@]1(=O)=NC(=O)c2ccc3c(c2)N(C[C@@H]2CC[C@H]2[C@@H](OC)CC[C@H](OC)[C@H](C)C1)C[C@@]1(CCCc2cc(Cl)ccc21)CO3 [Example 299],0.039,59.7,
COc1nn(C)cc1C(=O)N[S@@]1(=O)=NC(=O)c2ccc3c(c2)N(C[C@@H]2CC[C@H]2[C@@H](OC)CCC[C@H](C)C1)C[C@@]1(CCCc2cc(Cl)ccc21)CO3 [Example 240],0.018,91.5,
COc1nn(C)cc1C(=O)N[S@@]1(=O)=NC(=O)c2ccc3c(c2)N(C[C@@H]2CC[C@H]2[C@@H](OC(=O)CCN2CCOCC2)/C=C/C[C@H](C)C1)C[C@@]1(CCCc2cc(Cl)ccc21)CO3 [Example 300],0.026,26.8,
CO[C@H]1/C=C/CCC[S@@](=O)(NC(=O)NCc2ccnn2C)=NC(=O)c2ccc3c(c2)N(C[C@@H]2CC[C@H]21)C[C@@]1(CCCc2cc(Cl)ccc21)CO3 [Example 75],0.3,692,
COC1CN(C(=O)N[S@@]2(=O)=NC(=O)c3ccc4c(c3)N(C[C@@H]3CC[C@H]3[C@@H](OC)/C=C/[C@H](OC)[C@H](C)C2)C[C@@]2(CCCc3cc(Cl)ccc32)CO4)C1 [Example 375],0.046,22.4,
CO[C@H]1/C=C/C[C@H](C)C[S@@](=O)(NC(=O)c2cc3n(n2)CCO3)=NC(=O)c2ccc3c(c2)N(C[C@@H]2CC[C@H]21)C[C@@]1(CCCc2cc(Cl)ccc21)CO3 [Example 219],0.099,146,
CO[C@H]1/C=C/C[C@H](C)C[S@@](=O)(NC(=O)N2CCN3CCOC[C@H]3C2)=NC(=O)c2ccc3c(c2)N(C[C@@H]2CC[C@H]21)C[C@@]1(CCCc2cc(Cl)ccc21)CO3 [Example 334],0.041,48.6,
COc1cn(C)cc1C(=O)N[S@@]1(=O)=NC(=O)c2ccc3c(c2)N(C[C@@H]2CC[C@H]2[C@@H](O)/C=C/C[C@H](C)[C@H]1C)C[C@@]1(CCCc2cc(Cl)ccc21)CO3 [Example 359],0.038,,19
COCc1cc(C(=O)N[S@@]2(=O)=NC(=O)c3ccc4c(c3)N(C[C@@H]3CC[C@H]3[C@@H](OC)/C=C/C[C@H](C)C2)C[C@@]2(CCCc3cc(Cl)ccc32)CO4)cn1C [Example 304],0.129,21.3,
COc1nn(C)cc1C(=O)N[S@@]1(=O)=NC(=O)c2ccc3c(c2)N(C[C@@H]2CC[C@H]2[C@@H](OC)/C=C/[C@H](OCCN2CCOCC2)[C@H](C)C1)C[C@@]1(CCCc2cc(Cl)ccc21)CO3 [Example 295],0.04,22,

# The next lines start with the values.
IC50 [1] [nM],"EC50 (SKBR3 cells; Homo sapiens, SK-BR-3, 72 h) [nM]",EC50 (SKBR3 cells; 72 hours) [nM],Compound
0.043,154,,COC(=O)N1CC(NC(=O)N[S@@]2(=O)=NC(=O)c3ccc4c(c3)N(C[C@@H]3CC[C@H]3[C@@H](OC)/C=C/C[C@H](C)C2)C[C@@]2(CCCc3cc(Cl)ccc32)CO4)C1 [Example 114]
0.086,,28.7,"CO[C@H]1/C=C/C[C@H](C)C[S@@](=O)(NC(=O)NC2CC2CC(F)F)=NC(=O)c2ccc3c(c2)N(C[C@@H]2CC[C@H]21)C[C@@]1(CCCc2cc(Cl)ccc21)CO3 (single isomer, unassigned) [Example 282]"
0.039,36.9,,CO[C@H]1/C=C/C[C@H](C)C[S@@](=O)(NC(=O)N2CC(OC(F)F)C2)=NC(=O)c2ccc3c(c2)N(C[C@@H]2CC[C@H]21)C[C@@]1(CCCc2cc(Cl)ccc21)CO3 [Example 354]
0.102,82.5,,CO[C@H]1/C=C/C[C@H](C)C[S@@](=O)(NC(=O)N[C@@H]2CC[C@H]2OC)=NC(=O)c2ccc3c(c2)N(C[C@@H]2CC[C@H]21)C[C@@]1(CCCc2cc(Cl)ccc21)CO3 [Example 179]
0.06,43,,CO[C@H]1/C=C/C[C@H](C)C[S@@](=O)(NC(=O)N[C@@H]2CCOC2)=NC(=O)c2ccc3c(c2)N(C[C@@H]2CC[C@H]21)C[C@@]1(CCCc2cc(Cl)ccc21)CO3 [Example 155]
0.113,82.9,,CO[C@H]1/C=C/C[C@H](C)C[S@@](=O)(NC(=O)N[C@H]2C[C@@H]2C)=NC(=O)c2ccc3c(c2)N(C[C@@H]2CC[C@H]21)C[C@@]1(CCCc2cc(Cl)ccc21)CO3 [Example 117]
0.053,588,,CO[C@H]1/C=C/C[C@H](C)C[S@@](=O)(NC(=O)N2CC(O)C2)=NC(=O)c2ccc3c(c2)N(C[C@@H]2CC[C@H]21)C[C@@]1(CCCc2cc(Cl)ccc21)CO3 [Example 289]
0.033,64.3,,CO[C@H]1/C=C/C[C@H](C)C[S@@](=O)(NC(=O)N[C@H]2C[C@H](CO)C2)=NC(=O)c2ccc3c(c2)N(C[C@@H]2CC[C@H]21)C[C@@]1(CCCc2cc(Cl)ccc21)CO3 [Example 189]
0.141,106,,CO[C@H]1/C=C/C[C@H](C)C[S@@](=O)(NC(=O)c2cn(C)nc2C2CC2)=NC(=O)c2ccc3c(c2)N(C[C@@H]2CC[C@H]21)C[C@@]1(CCCc2cc(Cl)ccc21)CO3 [Example 164]
0.087,144,,CO[C@H]1/C=C/C[C@H](C)C[S@@](=O)(NC(=O)N[C@H]2C[C@H]2C)=NC(=O)c2ccc3c(c2)N(C[C@@H]2CC[C@H]21)C[C@@]1(CCCc2cc(Cl)ccc21)CO3 [Example 159]
0.069,165,,CO[C@H]1/C=C/C[C@H](C)C[S@@](=O)(NC(=O)NC2COC2)=NC(=O)c2ccc3c(c2)N(C[C@@H]2CC[C@H]21)C[C@@]1(CCCc2cc(Cl)ccc21)CO3 [Example 428]
0.073,76.1,,CO[C@H]1/C=C/C[C@H](C)C[S@@](=O)(NC(=O)c2cc(C)co2)=NC(=O)c2ccc3c(c2)N(C[C@@H]2CC[C@H]21)C[C@@]1(CCCc2cc(Cl)ccc21)CO3 [Example 203]
0.223,374,,CO[C@H]1/C=C/C[C@H](C)C[S@@](=O)(NC(=O)Nc2ccccn2)=NC(=O)c2ccc3c(c2)N(C[C@@H]2CC[C@H]21)C[C@@]1(CCCc2cc(Cl)ccc21)CO3 [Example 441]
